Source: patent publication US9101638B2, “Boronic acid derivatives and therapeutic uses thereof” (Rempex Pharmaceuticals, Inc., priority 2013, dated 2015)
Counter-ions that a name gives are not always drawn.

Assays:
KP1005 (CTX-M-14) = assay: Potentiation of aztreonam, strain KP1005; assay type: cell-based
CTX-M-14 = CTX-M-14 (Escherichia coli, UniProt Q9L5C7); assay: Inhibition of nitrocefin cleavage by purified CTX-M-14; assay type: biochemical; conditions: nitrocefin reporter substrate, purified enzyme; read-out: Ki (CTX-M-14, NCF)
Chain of CTX-M-14 (Q9L5C7 entry or part of it): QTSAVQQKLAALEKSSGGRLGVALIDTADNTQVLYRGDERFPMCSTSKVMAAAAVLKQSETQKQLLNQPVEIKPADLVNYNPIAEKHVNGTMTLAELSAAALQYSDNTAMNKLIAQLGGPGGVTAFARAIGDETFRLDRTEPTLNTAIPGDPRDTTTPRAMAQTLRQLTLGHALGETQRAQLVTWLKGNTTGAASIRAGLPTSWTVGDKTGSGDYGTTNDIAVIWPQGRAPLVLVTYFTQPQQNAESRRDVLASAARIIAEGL
Description: (§1) Purified enzymes were mixed with various concentrations of inhibitors in reaction buffer and incubated for 10 min at room temperature. Nitrocefin was added and substrate cleavage profiles were recorded at 490 nm every 10 sec for 10 min.

KPC-2 = KPC-2 (Klebsiella pneumoniae, UniProt Q9F663); assay: Inhibition of nitrocefin cleavage by purified KPC-2; assay type: biochemical; conditions: nitrocefin reporter substrate, purified enzyme; read-out: Ki (KPC-2, NCF)
Chain of KPC-2 (Q9F663 25-293, looked up, species assumed): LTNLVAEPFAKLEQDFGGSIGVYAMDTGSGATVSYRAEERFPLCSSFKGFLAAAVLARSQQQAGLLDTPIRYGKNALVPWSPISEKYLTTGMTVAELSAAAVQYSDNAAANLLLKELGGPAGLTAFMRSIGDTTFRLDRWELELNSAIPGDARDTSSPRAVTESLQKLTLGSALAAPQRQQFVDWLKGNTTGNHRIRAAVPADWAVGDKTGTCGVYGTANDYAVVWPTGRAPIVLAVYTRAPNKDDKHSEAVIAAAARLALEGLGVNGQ
Description: as §1

SHV-12 = SHV-12 (Klebsiella pneumoniae, UniProt P0AD64, E235K/G234S/L31Q); assay: Inhibition of nitrocefin cleavage by purified SHV-12; assay type: biochemical; conditions: nitrocefin reporter substrate, purified enzyme; read-out: Ki (SHV-12, NCF)
Chain of SHV-12 (P0AD64 22-286 L31Q/G234S/E235K): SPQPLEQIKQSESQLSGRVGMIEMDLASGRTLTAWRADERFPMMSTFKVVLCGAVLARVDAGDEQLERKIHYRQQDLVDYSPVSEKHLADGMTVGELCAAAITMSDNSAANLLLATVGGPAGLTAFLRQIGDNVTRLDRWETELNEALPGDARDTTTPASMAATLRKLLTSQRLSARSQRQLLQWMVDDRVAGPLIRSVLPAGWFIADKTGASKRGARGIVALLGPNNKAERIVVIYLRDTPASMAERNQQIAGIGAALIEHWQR
Description: as §1

ec302 (TEM-10) [1] = assay: Potentiation of aztreonam, strain ec302; assay type: cell-based
ec308 (SHV-5) [2] = assay: Potentiation of aztreonam, strain ec308; assay type: cell-based; conditions: minimum BLI concentration inhibiting growth with 4 μg/mL aztreonam
ec308 (SHV-5) [3] = assay: Potentiation of tigemonam, strain ec308; assay type: cell-based; conditions: minimum BLI concentration inhibiting growth with 4 μg/mL tigemonam
KP1004 (K-2) = assay: Potentiation of aztreonam, strain KP1004; assay type: cell-based; conditions: minimum BLI concentration inhibiting growth with 4 μg/mL aztreonam
PAM1154/KPC-2 = assay: Biapenem potentiation in PAM1154/KPC-2 (MexAB-OprM lacking); assay type: cell-based, Pseudomonas aeruginosa
Description: (§2) Efflux of BLIs from Pseudomonas aeruginosa by the MexAB-OprM efflux pump was also evaluated. […] Due to expression of KPC-2 both strains became resistant to biapenem. […] Potency of BLIs to potentiate biapenem in these strains was determined. […] The ratio of MPC64 values for each BLI in PAM1032/KPC-2 (efflux proficient) and PAM1154/KPC-2 (efflux deficient) was determined to generate the Efflux Index (EI).

ECL1002 = assay: Potentiation of aztreonam, strain ECL1002; assay type: cell-based; conditions: minimum BLI concentration inhibiting growth with 4 μg/mL aztreonam
OXA-48 = OXA-48 (Klebsiella pneumoniae, UniProt Q6XEC0); assay: Inhibition of nitrocefin cleavage by purified OXA-48; assay type: biochemical; conditions: nitrocefin reporter substrate, purified enzyme; read-out: Ki (OXA-48, NCF)
Chain of OXA-48 (Q6XEC0 23-265 limits assumed): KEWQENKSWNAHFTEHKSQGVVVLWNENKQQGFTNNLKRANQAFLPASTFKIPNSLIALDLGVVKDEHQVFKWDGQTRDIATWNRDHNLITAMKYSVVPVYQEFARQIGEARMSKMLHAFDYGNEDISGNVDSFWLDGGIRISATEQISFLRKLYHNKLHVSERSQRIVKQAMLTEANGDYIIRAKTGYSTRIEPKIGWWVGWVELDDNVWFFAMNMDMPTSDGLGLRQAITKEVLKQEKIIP
Description: as §1

EC1010 (CMY-6) [4] = assay type: cell-based
KP1009 (CTX-M-15) [5] = assay: Potentiation of aztreonam, strain KP1009; assay type: cell-based
PAM1032/KPC-2 = assay: Biapenem potentiation in PAM1032/KPC-2 (MexAB-OprM overexpressed); assay type: cell-based, Pseudomonas aeruginosa; conditions: BLI potency to decrease biapenem MIC 64-fold, 32 to 0.5 μg/ml; efflux proficient strain
Description: as §2

EC1010 (CMY-6) [6] = assay: Potentiation of aztreonam, strain EC1010; assay type: cell-based
CathepsinG = molecular target: T1, CathepsinG (Homo sapiens, UniProt P08311); assay: Serine protease inhibition: cathepsin G; assay type: biochemical, mammalian; conditions: Table 8B
T1 construct: purchased EMD Millipore 219373
T1 sequence (P08311 21-244): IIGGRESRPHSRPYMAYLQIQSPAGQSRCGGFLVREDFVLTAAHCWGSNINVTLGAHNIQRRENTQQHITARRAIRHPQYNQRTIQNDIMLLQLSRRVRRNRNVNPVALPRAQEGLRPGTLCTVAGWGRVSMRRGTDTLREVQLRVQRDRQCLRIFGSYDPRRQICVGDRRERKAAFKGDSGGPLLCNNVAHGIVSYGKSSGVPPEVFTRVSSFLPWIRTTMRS
Description: (§3) The effect of selected BLIs on the enzymatic activity of some common mammalian serine proteases was evaluated.
(§4) 50 μl of the diluted enzyme was mixed with 50 μl of inhibitor at various concentrations and 50 μl of corresponding buffer (Table 7). Reaction mixtures were incubated for 10 min at 37° C. Subsequently, 50 μl of corresponding substrate (Table 7) was added and absorbance or fluorescence was monitored for 30 min on SpectraMax M2 plate reader (Molecular Devices). 4-(2-Aminoethyl)benzenesulfonyl fluoride hydrochloride (AEBSF) and leupeptin were used as positive controls. Rates of reaction were calculated and presented relative to “no treatment” control.

CathepsinA = molecular target: T2, CathepsinA (Homo sapiens, UniProt P10619); assay: Serine protease inhibition: cathepsin A; assay type: biochemical, mammalian; conditions: Table 8B; read-out: IC50 CathepsinA
T2 construct: purchased R&D Systems 1049-SE
T2 sequence (P10619 29-480): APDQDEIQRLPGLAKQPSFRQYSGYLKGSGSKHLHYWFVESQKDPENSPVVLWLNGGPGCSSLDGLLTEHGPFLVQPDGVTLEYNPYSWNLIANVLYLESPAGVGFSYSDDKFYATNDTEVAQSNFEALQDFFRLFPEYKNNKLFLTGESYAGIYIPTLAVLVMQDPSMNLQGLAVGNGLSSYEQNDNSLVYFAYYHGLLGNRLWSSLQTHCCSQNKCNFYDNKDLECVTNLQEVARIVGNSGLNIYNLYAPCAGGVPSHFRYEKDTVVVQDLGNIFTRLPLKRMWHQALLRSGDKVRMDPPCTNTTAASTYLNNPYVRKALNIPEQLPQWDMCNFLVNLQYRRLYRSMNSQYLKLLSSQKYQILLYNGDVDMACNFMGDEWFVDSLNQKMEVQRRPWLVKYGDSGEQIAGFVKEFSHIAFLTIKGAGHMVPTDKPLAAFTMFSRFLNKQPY
Description: as §3, §4

ec302 (TEM-10) [7] = assay: Potentiation of tigemonam, strain ec302; assay type: cell-based
KP1009 (CTX-M-15) [8] = assay: Potentiation of tigemonam, strain KP1009; conditions: minimum BLI concentration inhibiting growth with 4 μg/mL tigemonam
Chymase = molecular target: T3, Chymase (Homo sapiens, UniProt P23946); assay: Serine protease inhibition: chymase; assay type: biochemical, mammalian
T3 construct: purchased Enzo Lifescience BML-SE281
T3 sequence (P23946 22-247): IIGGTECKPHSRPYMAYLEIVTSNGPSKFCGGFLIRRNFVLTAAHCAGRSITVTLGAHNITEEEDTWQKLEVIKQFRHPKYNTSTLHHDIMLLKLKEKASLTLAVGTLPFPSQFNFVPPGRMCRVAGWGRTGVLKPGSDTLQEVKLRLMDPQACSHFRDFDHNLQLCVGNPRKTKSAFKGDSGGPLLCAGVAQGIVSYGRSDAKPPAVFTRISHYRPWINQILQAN
Description: as §3, §4

Neutrophil elastase = molecular target: T4, Neutrophil elastase (Homo sapiens, UniProt P08246); assay: Serine protease inhibition: neutrophil elastase; assay type: biochemical, mammalian
T4 construct: purchased Calbiochem 324681
T4 sequence (P08246 30-267): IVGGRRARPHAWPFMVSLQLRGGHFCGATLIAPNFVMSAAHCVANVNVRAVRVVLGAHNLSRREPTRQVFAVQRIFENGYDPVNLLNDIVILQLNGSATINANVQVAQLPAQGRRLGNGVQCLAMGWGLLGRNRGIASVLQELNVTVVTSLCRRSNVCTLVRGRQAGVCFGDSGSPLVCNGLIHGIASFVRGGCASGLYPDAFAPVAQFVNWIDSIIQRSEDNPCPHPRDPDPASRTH
Description: as §3, §4

Urokinase = molecular target: T5, Urokinase (Homo sapiens, UniProt P00749); assay: Serine protease inhibition: urokinase; assay type: biochemical, mammalian
T5 construct: purchased Calbiochem 672112
Description: as §3, §4

Thrombin = molecular target: T6, Thrombin (Homo sapiens, UniProt P00734); assay: Serine protease inhibition: thrombin; assay type: biochemical, mammalian
T6 construct: Thrombin; MPBio; 19491880; purchased MPBio 19491880
Description: as §3, §4

O=C(N[C@H]1Cc2cccc(C(=O)O)c2OB1O)c1cncs1 [Compound 15, (R)-2-hydroxy-3-(thiazole-5-carboxamido)-3,4-dihydro-2H-benzo[e][1,2]oxaborinine-8-carboxylic acid]
AZT MPC4 CTX-M-14 KP1005 (KP1005 (CTX-M-14)): Y (key: X = MIC of less than 1 μg/mL; Y = MIC of 1 μg/mL to 10 μg/mL; Z = MIC of greater than 10 μg/mL)
Ki (CTX-M-14): < 0.001 µM
Ki (KPC-2): > 0.01 µM
Ki (SHV-12): < 0.001 µM
AZT MPC4 TEM-10 ec302 (ec302 (TEM-10) [1]): X (key: X = MIC of less than 1 μg/mL; Y = MIC of 1 μg/mL to 10 μg/mL; Z = MIC of greater than 10 μg/mL)
AZT MPC4 SHV-5 ec308 (ec308 (SHV-5) [2]): X (X = MIC of less than 1 μg/mL)
TIG MPC4 SHV-5 ec308 (ec308 (SHV-5) [3]): Y (Y = MIC of 1 μg/mL to 10 μg/mL)
AZT MPC4 K-2 KP1004 (KP1004 (K-2)): Y (Y = MIC of 1 μg/mL to 10 μg/mL)
PAM1154/KPC-2 Biapenem MPC64 (PAM1154/KPC-2): X (key: X = Less than 10; Y = 10 to 40; Z Greater than 40)
AZT MPC4 ECL1002 (ECL1002): Y (Y = MIC of 1 μg/mL to 10 μg/mL)
Ki (OXA-48): < 0.001 µM
TIG MPC4 CMY-6 EC1010 (EC1010 (CMY-6) [4]): Y (key: X = MIC of less than 1 μg/mL; Y = MIC of 1 μg/mL to 10 μg/mL; Z = MIC of greater than 10 μg/mL)
AZT MPC4 CTX-M-15 KP1009 (KP1009 (CTX-M-15) [5]): Y (key: X = MIC of less than 1 μg/mL; Y = MIC of 1 μg/mL to 10 μg/mL; Z = MIC of greater than 10 μg/mL)
PAM1032/KPC-2 Biapenem MPC64 (PAM1032/KPC-2): Z (Z Greater than 40)
AZT MPC4 CMY-6 EC1010 (EC1010 (CMY-6) [6]): Y (key: X = MIC of less than 1 μg/mL; Y = MIC of 1 μg/mL to 10 μg/mL; Z = MIC of greater than 10 μg/mL)
IC50 (CathepsinG): 15 to 500 µM
IC50 (CathepsinA): 15 to 500 µM
TIG MPC4 TEM-10 ec302 (ec302 (TEM-10) [7]): Y (key: X = MIC of less than 1 μg/mL; Y = MIC of 1 μg/mL to 10 μg/mL; Z = MIC of greater than 10 μg/mL)
TIG MPC4 CTX-M-15 KP1009 (KP1009 (CTX-M-15) [8]): Y (Y = MIC of 1 μg/mL to 10 μg/mL)

NCCc1ccc(S(=O)(=O)F)cc1 [AEBSF, 4-(2-Aminoethyl)benzenesulfonyl fluoride hydrochloride, reference compound]
IC50 (Chymase): 375 µM
IC50 (Neutrophil elastase): > 500 µM
IC50 (Urokinase): 8.2 µM
IC50 (Thrombin): 100 µM
